Assay results published in ChEMBL document CHEMBL1150847, “New lactone-containing metabolites from a marine-derived bacterium of the genus Streptomyces” (J Nat Prod, 2001).
Active and inactive are the calls of the source. No cut-off for these calls is given here.

Tested on: Candida albicans
Assay: Antifungal activity against Candida albicans by paper disk method
Type: functional, organism-based

SMILES | Activity
CC(C)CC[C@@H]1C(=O)O[C@@H](C)[C@@H]1O | Active
CCC(C)C[C@H]1C(=O)O[C@@H](C)[C@@H]1O (some centres not stated) | Active
CCCC[C@H]1C(=O)O[C@@H](C)[C@@H]1O | Active
CC(=O)C(C)CCCCCC1C=CC(=O)O1 (configuration not stated) | Active
CCC(C)(O)CCCCCC1C=CC(=O)O1 (configuration not stated) | Active
CC(C)CC[C@H]1C(=O)O[C@@H](C)[C@@H]1O | Active
CC(C)(O)CCCCCC1C=CC(=O)O1 (configuration not stated) | Active
